Source: PubChem BioAssay AID248 (DTP/NCI, 2004)
Values joined by “and” are separate entries in the source; they are usually repeats but may differ in a detail not shown here. Equal entries are not always repeated. Toxic doses and inconclusive results are not listed. No stated cut-off is given here; in the data, active means T/C of 150% or more; inactive means T/C below 125%.

Test system: L1210 leukemia ip in BDF1 mice, survival T/C
Test: NCI In Vivo Anticancer Drug Screen. Data for tumor model L1210 Leukemia (intraperitoneal) in B6D2F1 (BDF1) mice
Settings: endpoint: mean survival time, higher = longer survival
Outline: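 Read-out is survival time, reported as the treated-group measurement over the vehicle-control measurement.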

[1] = dose: 100.0 mg/kg/injection, schedule: Q01DX001 (ip), vehicle: saline
[2] = dose: 75.0 mg/kg/injection, schedule: Q01DX001 (ip), vehicle: other
[3] = dose: 150.0 mg/kg/injection, schedule: Q01DX001 (ip), vehicle: other
[4] = dose: 300.0 mg/kg/injection, schedule: Q01DX001 (ip), vehicle: other
[5] = dose: 25.0 mg/kg/injection, schedule: Q01DX001 (ip), vehicle: saline with Tween-80
[6] = dose: 100.0 mg/kg/injection, schedule: Q04DX003 (ip), vehicle: saline with Tween-80
[7] = dose: 200.0 mg/kg/injection, schedule: Q04DX003 (ip), vehicle: saline with Tween-80

Measured: T/C

NC(=S)N/N=C\c1nccc2c(C(=O)O)cccc12
inactive: dose: 100.0 mg/kg/injection, schedule: Q04DX002 (ip), vehicle: saline 106 % of control | dose: 200.0 mg/kg/injection, schedule: Q04DX002 (ip), vehicle: saline 106 % of control

CCC(/C=N/N=C(N)N)=N\N=C(N)N
inactive: dose: 15.0 mg/kg/injection, schedule: Q01DX Z (ip), vehicle: saline 97 % of control | dose: 30.0 mg/kg/injection, schedule: Q01DX Z (ip), vehicle: saline 103 % of control | dose: 30.0 mg/kg/injection, schedule: Q01DX Z (oral), vehicle: saline 102 % of control | dose: 60.0 mg/kg/injection, schedule: Q01DX Z (ip), vehicle: saline 103 % of control and 115 % of control | dose: 60.0 mg/kg/injection, schedule: Q01DX Z (oral), vehicle: saline 101 % of control | dose: 120.0 mg/kg/injection, schedule: Q01DX Z (ip), vehicle: saline 108 % of control | dose: 120.0 mg/kg/injection, schedule: Q01DX Z (oral), vehicle: saline 97 % of control and 106 % of control | dose: 240.0 mg/kg/injection, schedule: Q01DX Z (oral), vehicle: saline 102 % of control and 104 % of control | dose: 480.0 mg/kg/injection, schedule: Q01DX Z (oral), vehicle: saline 111 % of control

Cc1cnc(C)c(OCCN2CC2)n1
inactive: [1] 93 % of control

CCN(CC)CCCOC(=O)c1ccc(NC(C)(C)[N+](=O)[O-])cc1
inactive: dose: 25.0 mg/kg/injection, schedule: Q01DX009 (ip), vehicle: saline 98 % of control | dose: 50.0 mg/kg/injection, schedule: Q01DX009 (ip), vehicle: saline 91 % of control | [1] 90 % of control

COC1CCC(OC2CC(C3(C)CCC4(CC(O)C(C)C(C(C)/C=C(\C)C(=O)C(C)CC(C)C(=O)O)O4)O3)OC3(OC(C4OC(O)(CO)C(C)CC4C)CC3C)C2C)OC1C (stereo not given)
inactive: dose: 0.93 mg/kg/injection, schedule: Q01DX001 (ip), vehicle: saline 93 % of control | dose: 1.87 mg/kg/injection, schedule: Q01DX001 (ip), vehicle: saline 90 % of control | dose: 28.0 micrograms/kg/injection, schedule: Q01DX009 (ip), vehicle: saline 94 % of control | dose: 57.0 micrograms/kg/injection, schedule: Q01DX009 (ip), vehicle: saline 88 % of control | dose: 57.0 micrograms/kg/injection, schedule: Q04DX003 (ip), vehicle: saline 94 % of control | dose: 115.0 micrograms/kg/injection, schedule: Q01DX009 (ip), vehicle: saline 105 % of control | dose: 115.0 micrograms/kg/injection, schedule: Q04DX003 (ip), vehicle: saline 91 % of control | dose: 230.0 micrograms/kg/injection, schedule: Q04DX003 (ip), vehicle: saline 89 % of control

CSc1ccccc1C[P+](c1ccccc1)(c1ccccc1)c1ccccc1
inactive: dose: 1.56 mg/kg/injection, schedule: Q01DX009 (ip), vehicle: saline with Tween-80 102 % of control | dose: 3.13 mg/kg/injection, schedule: Q01DX009 (ip), vehicle: saline with Tween-80 103 % of control | dose: 6.25 mg/kg/injection, schedule: Q01DX009 (ip), vehicle: saline with Tween-80 105 % of control

CN(C)C(=S)Sc1ccc([N+](=O)[O-])cc1
inactive: [2] 103 % of control | [3] 96 % of control | [4] 91 % of control

Nc1ccc(N=Nc2ccccc2)c2cccnc12 (tested in a mixture with another compound)
inactive: dose: 100.0 mg/kg/injection, schedule: Q04DX003 (sc), vehicle: olive oil, sesame oil, peanut oil 100 % of control | dose: 200.0 mg/kg/injection, schedule: Q04DX003 (sc), vehicle: olive oil, sesame oil, peanut oil 100 % of control | dose: 400.0 mg/kg/injection, schedule: Q04DX003 (sc), vehicle: olive oil, sesame oil, peanut oil 117 % of control

Cc1ccc(S(=O)(=O)OCC2C3CCC(c4ccccc43)C2COS(=O)(=O)c2ccc(C)cc2)cc1 (stereo not given)
inactive: dose: 100.0 mg/kg/injection, schedule: Q04DX003 (ip), vehicle: Klucel (hydroxypropylcellulose) (HPC) 109 % of control | dose: 200.0 mg/kg/injection, schedule: Q04DX003 (ip), vehicle: Klucel (hydroxypropylcellulose) (HPC) 105 % of control | dose: 400.0 mg/kg/injection, schedule: Q04DX003 (ip), vehicle: Klucel (hydroxypropylcellulose) (HPC) 88 % of control

BrP(Nc1ccccc1)(c1ccccc1)(c1ccccc1)c1ccccc1
inactive: dose: 10.0 mg/kg/injection, schedule: Q01DX001 (ip), vehicle: acetone 100 % of control | dose: 20.0 mg/kg/injection, schedule: Q01DX001 (ip), vehicle: acetone 101 % of control | dose: 40.0 mg/kg/injection, schedule: Q01DX001 (ip), vehicle: acetone 91 % of control

Cc1nc(N)[nH]c(=O)c1CCCNCc1ccccn1
inactive: [5] 101 % of control | dose: 50.0 mg/kg/injection, schedule: Q01DX001 (ip), vehicle: saline with Tween-80 98 % of control | dose: 100.0 mg/kg/injection, schedule: Q01DX001 (ip), vehicle: saline with Tween-80 93 % of control

OC(CC1=NNC(=S)NC1)(C(F)(F)F)C(F)(F)F
inactive: [6] 95 % of control | [7] 87 % of control

NP(Cl)(c1ccccc1)(c1ccccc1)c1ccccc1
inactive: dose: 0.2 mg/kg/injection, schedule: Q04DX003 (ip), vehicle: Klucel (hydroxypropylcellulose) (HPC) 96 % of control | dose: 0.39 mg/kg/injection, schedule: Q04DX003 (ip), vehicle: Klucel (hydroxypropylcellulose) (HPC) 99 % of control | dose: 0.78 mg/kg/injection, schedule: Q04DX003 (ip), vehicle: Klucel (hydroxypropylcellulose) (HPC) 97 % of control

O=C(OCCOCCOCCOCCOCCOCCOCCOCCOCCOCCOCCOCCOCCOCCOCCOCCOCCOCCOCCOCCOCCOCCOC(=O)N1CC1)N1CC1
inactive: dose: 100.0 mg/kg/injection, schedule: Q01DX001 (ip), vehicle: acetone 94 % of control | dose: 100.0 mg/kg/injection, schedule: Q01DX009 (ip), vehicle: acetone 98 % of control | dose: 100.0 mg/kg/injection, schedule: Q04DX003 (ip), vehicle: saline 100 % of control | dose: 200.0 mg/kg/injection, schedule: Q01DX001 (ip), vehicle: acetone 94 % of control | dose: 200.0 mg/kg/injection, schedule: Q01DX009 (ip), vehicle: acetone 95 % of control | dose: 200.0 mg/kg/injection, schedule: Q04DX003 (ip), vehicle: saline 103 % of control | dose: 400.0 mg/kg/injection, schedule: Q01DX001 (ip), vehicle: acetone 97 % of control | dose: 400.0 mg/kg/injection, schedule: Q04DX003 (ip), vehicle: saline 108 % of control

Nc1ncnc2nc(-c3ccc(Cl)cc3Cl)[nH]c12
inactive: dose: 6.25 mg/kg/injection, schedule: Q01DX001 (ip), vehicle: saline with Tween-80 101 % of control | dose: 12.5 mg/kg/injection, schedule: Q01DX001 (ip), vehicle: saline with Tween-80 106 % of control | [5] 98 % of control

COC(=O)C(=O)CC(=O)c1ccccc1
inactive: dose: 100.0 mg/kg/injection, schedule: Q04DX002 (ip), vehicle: Klucel (hydroxypropylcellulose) (HPC) 116 % of control | dose: 200.0 mg/kg/injection, schedule: Q04DX002 (ip), vehicle: Klucel (hydroxypropylcellulose) (HPC) 106 % of control | dose: 400.0 mg/kg/injection, schedule: Q04DX002 (ip), vehicle: Klucel (hydroxypropylcellulose) (HPC) 118 % of control

CCOC(CCC#N)c1ccccc1 (stereo not given)
inactive: [6] 95 % of control | dose: 125.0 mg/kg/injection, schedule: Q01DX009 (ip), vehicle: saline with Tween-80 113 % of control | [7] 98 % of control | dose: 235.0 mg/kg/injection, schedule: Q01DX009 (ip), vehicle: saline with Tween-80 96 % of control | dose: 400.0 mg/kg/injection, schedule: Q04DX003 (ip), vehicle: saline with Tween-80 92 % of control

CNC(=O)O/N=C(/SC)C(C)C
inactive: dose: 5.0 mg/kg/injection, schedule: Q01DX001 (ip), vehicle: saline 100 % of control | dose: 10.0 mg/kg/injection, schedule: Q01DX001 (ip), vehicle: saline 100 % of control

Cc1cc(C(=O)O)c(C(=O)O)c(=O)[nH]1
inactive: [2] 111 % of control | [3] 104 % of control | [4] 102 % of control
